Among the data in patent US20230051589A1, “COMPOUNDS AND COMPOSITIONS FOR TREATING CONDITIONS ASSOCIATED WITH NLRP ACTIVITY” (Novartis AG, priority 2018, published 2023) are IC50 values, retold here.

Experiment [1] concerns IL-1β production in hTHP-1 cells. The experiment in a line: hTHP-1 assay containing 10% fetal bovine serum. It is filed as cell-based, human. The method, then: inhibition=100-100×[HCave−Readout/(HCave−LCave)] • 2. Fit the normalized data in a dose-response manner using XLfit, and calculate the compound concentration. Tables B1, B2, and B3 show the biological activity of compounds in hTHP-1 assay containing 2% fetal bovine serum. […] Key: <0.008 μM=“++++++”; ≥0.008 and <0.04 μM=“+++++”; ≥0.04 and <0.2 μM=“++++”; ≥0.2 and <1 μM=“+++”; ≥1 and <5 μM=“++”; ≥5 and <30 μM=“+”.

Experiment [2] relates to IL-1β production in PMA-differentiated THP-1 cells. The experiment in a line: IL-1β production in PMA-differentiated THP-1 cells stimulated with gramicidin (hTHP-1 assay, 2% fetal bovine serum; Procedures 1-3). It counts as cell-based, human. In a few lines: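 IL-1β released into supernatants was read by HTRF after 2 h gramicidin (5 μM) challenge. Before challenge, compounds (3-fold dilutions, top 100 μM, 0.37% DMSO) were given 1 h on THP-1 cells differentiated with PMA (20 ng/ml, 16-18 h) and held in 2% FBS medium.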

The mark [3] stands for this setting: read-out: hTHP-1 IC50 in 10% FBS, hTHP-1 assay containing 10% fetal bovine serum, Table B4.
Setting [4] is: Homo sapiens, read-out: hTHP-1 IC50 in 10% FBS, hTHP-1 assay containing 10% fetal bovine serum, Table B4.
Where [5] appears, read: Homo sapiens, THP-1, hTHP-1 assay containing 2% fetal bovine serum, Table B2, class symbols, read-out: IC50.
Setting [6] is: Homo sapiens, THP-1, Table B3, hTHP-1 assay containing 2% fetal bovine serum, gramicidin stimulation, IL-1β readout, read-out: hTHP-1 IC50.
[7] abbreviates: hTHP-1 assay containing 2% fetal bovine serum, Table B2, class symbols, read-out: IC50.

Where two headings read alike, the source gives them in different places.

The IC50 is the concentration that inhibits the measured activity by half. As to `CC(C)(O)c1csc(S(N)(=O)=NC(=O)Nc2c3c(cc4c2CCC4)CCC3)c1F` (single isomer, unassigned) [Example 880, (R) or (S)-3-fluoro-N′-((1,2,3,5,6,7-hexahydro-s-indacen-4-yl)carbamoyl)-4-(2-hydroxypropan-2-yl)thiophene-2-sulfonimidamide], the IC50 in experiment [1] (setting [3]) lay in the range of 40 to 200 nM. As for `CC(C)(O)c1csc(S(N)(=O)=NC(=O)Nc2c3c(cc4c2CCC4)CCC3)c1F` (single isomer, unassigned) [Example 881, (S) or (R)-3-fluoro-N′-((1,2,3,5,6,7-hexahydro-s-indacen-4-yl)carbamoyl)-4-(2-hydroxypropan-2-yl)thiophene-2-sulfonimidamide], the IC50 in experiment [1] (setting [3]) fell in the range of 5000 to 30000 nM.

Turning to `CC(C)(O)c1csc(S(N)(=O)=NC(=O)Nc2c3c(cc4c2CC4)CCC3)c1F` (single isomer, unassigned) [Example 882, (R) or (S)-3-fluoro-4-(2-hydroxypropan-2-yl)-N′-((2,4,5,6-tetrahydro-1H-cyclobuta[f]inden-3-yl)carbamoyl)thiophene-2-sulfonimidamide], the IC50 in experiment [1] (setting [3]) was in the range of 8 to 40 nM. Still for that read-out and setting: to `CC(C)(O)c1csc(S(N)(=O)=NC(=O)Nc2c3c(cc4c2CC4)CCC3)c1F` (single isomer, unassigned) [Example 883, (S) or (R)-3-fluoro-4-(2-hydroxypropan-2-yl)-N′-((2,4,5,6-tetrahvdro-1H-cyclobuta[f]inden-3-yl)carbamoyl)thiophene-2-sulfonimidamide] belongs 1000 to 5000 nM. On to `CC(C)(O)c1csc(S(N)(=O)=NC(=O)Nc2c3c(cc4c2CCC4)CCC3)c1F` (stereo not shown) [Example 878, 3-Fluoro-N′-((1,2,3,5,6,7-hexahydro-s-indacen-4-yl)carbamoyl)-4-(2-hydroxypropan-2-yl)thiophene-2-sulfonimidamide], for which the IC50 in experiment [1] (setting [4]) lay in the range of 40 to 200 nM. With `CC(C)(O)c1csc(S(N)(=O)=NC(=O)Nc2c3c(cc4c2CC4)CCC3)c1F` (stereo not shown) [Example 879, 3-Fluoro-4-(2-hydroxypropan-2-yl)-N′-((2,4,5,6-tetrahydro-1H-cyclobuta[f]inden-3-yl)carbamoyl)thiophene-2-sulfonimidamide], in experiment [1] (setting [4]), the IC50 lay within 40 to 200 nM. `CC(OC(F)F)c1ccc(S(N)(=O)=NC(=O)Nc2c3c(cc4c2CCC4)CCC3)cc1` (stereo not shown) [compound 452, 4-(1-(Difluoromethoxy)ethyl)-N′-((1,2,3,5,6,7-hexahydro-s-indacen-4-yl)carbamoyl)benzenesulfonimidamide]: the IC50 in experiment [2] (setting [5]) lay within 1000 to 5000 nM. With `CNCC(C)(C)c1ccc(S(N)(=O)=NC(=O)Nc2c3c(cc4c2CCC4)CCC3)cc1` (stereo not shown) [compound 496, N′-((1,2,3,5,6,7-hexahydro-s-indacen-4-yl)carbamoyl)-4-(2-methyl-1-(methylamino)propan-2-yl)benzenesulfonimidamide], the IC50 in experiment [2] (setting [5]) fell in the range of 1000 to 5000 nM. In the case of `CNCc1csc(S(N)(=O)=NC(=O)Nc2c3c(cc4c2CCC4)CCC3)c1` (stereo not shown) [compound 672, N′-((1,2,3,5,6,7-hexahydro-s-indacen-4-yl)carbamoyl)-4-((methylamino)methyl)thiophene-2-sulfonimidamide], the IC50 in experiment [2] (setting [5]) was in the range of 40 to 200 nM.

For the compound `NS(=O)(=NC(=O)Nc1c2c(cc3c1CC3)CCC2)c1nn(C(F)F)cc1F` (stereo not shown) [compound 734, 1-(Difluoromethyl)-4-fluoro-N′-((2,4,5,6-tetrahydro-1H-cyclobuta[f]inden-3-yl)carbamoyl)-1H-pyrazole-3-sulfonimidamide], the IC50 in experiment [2] (setting [6]) is 40 to 200 nM.

For the compound `CC(C)n1nc(S(N)(=O)=NC(=O)Nc2c3c(cc4c2C(=O)CC4)CCC3)cc1CO` (stereo not shown) [compound 739, 5-(Hydroxymethyl)-1-isopropyl-N′-((3-oxo-1,2,3,5,6,7-hexahydro-s-indacen-4-yl)carbamoyl)-1H-pyrazole-3-sulfonimidamide], the IC50 in experiment [2] (setting [6]) lay in the range of 1000 to 5000 nM. Regarding `C#CCCC1(CCC(=O)N(C)Cc2ccc([S@@](N)(=O)=NC(=O)Nc3c4c(cc5c3CCC5)CCC4)cc2)N=N1` [compound 771], in experiment [2] (setting [6]), the IC50 was 200 to 1000 nM. For `CN1CCC(c2ccc(S(N)(=O)=NC(=O)Nc3c4c(cc5c3CCC5)CCC4)c(F)c2)C1` (stereo not shown) [compound 776, 2-Fluoro-N′-((1,2,3,5,6,7-hexahydro-s-indacen-4-yl)carbamoyl)-4-(1-methylpyrrolidin-3-yl)benzenesulfonimidamide], the IC50 in experiment [2] (setting [6]) was 5000 to 30000 nM. Take “(S)- and (R)-3-Fluoro-5-((methylamino)methyl)-N′-((2,4,5,6-tetrahydro-1H-cyclobuta[f]inden-3-yl)carbamoyl)thiophene-2-sulfonimidamide [Example 670]”: the IC50 in experiment [2] (setting [7]) lay in the range of 40 to 200 nM. “(S)- and (R)-3-Fluoro-5-((methylamino)methyl)-N′-((2,4,5,6-tetrahydro-1H-cyclobuta[f]inden-3-yl)carbamoyl)thiophene-2-sulfonimidamide [Example 671]”: the IC50 in experiment [2] (setting [7]) was 1000 to 5000 nM.

Take “N-(amino((R)-6-methoxy-6,7- dihydro-5H-pyrazolo[5,1- b][1,3]oxazin-3-yl)(oxo)-9,6- sulfaneylidene)-1,2,3,5,6,7- hexahydro-s-indacene-4-carboxamide [Example 472]”: the IC50 in experiment [2] (setting [7]) fell in the range of 40 to 200 nM.
